The results in this text go back to paper PMC5514901, “Synthesis and evaluation of anthranilamide-based derivatives as FXa inhibitors” (Oncotarget, 2017).

One data set deals with T1, human FXa (Homo sapiens, UniProt P00742).
T1 construct: purchased Hyphen BioMed
The data set can be described thus: Inhibition activity measurement against FXa (chromogenic substrate CS-11(22)). The settings on record: for IC50: human FXa, chromogenic substrate, 37°C, read at 405 nm; for FXa inhibitory activity (in words): SAR statement in text. Format: biochemical. As for the experimental part:
The inhibition of FXa was measured using human FXa (Hyphen BioMed, city, Paris, FRA) and chromogenic substrate CS-11(22) (Hyphen BioMed, Paris, FRA) in 384-well microtiter plates at room temperature. […] 2 μL of FXa (56.8 nM), 16 μL of Tris buffer (adjust to pH 7.4 with HCl containing 0.3 M NaCl and 50 mM Tris) and 3 μL of test compound were added to the well, respectively. The negative control was composed of the same mixed solutions except replacing test compound with DMSO. […] After incubated at 37°C for 5 min, 8 μL of FXa substrate solution (3.5 mM) was added and then incubated at 37°C for 25 min. The FXa activity was measured at 405 nm using a SpectraMax M5 (Molecular Devices, Sunnyvale, CA, USA). The IC50 was calculated by the software named SPSS (IBM, North Castle, NY, USA) and the Probit function in it.

Bounds are passed on as bounds.

One may read the IC50 as the concentration that inhibits the measured activity by half. A word on the melting point: it is the temperature, or range, at which the solid turns liquid.

T1 sequence (P00742 235-488 limits assumed): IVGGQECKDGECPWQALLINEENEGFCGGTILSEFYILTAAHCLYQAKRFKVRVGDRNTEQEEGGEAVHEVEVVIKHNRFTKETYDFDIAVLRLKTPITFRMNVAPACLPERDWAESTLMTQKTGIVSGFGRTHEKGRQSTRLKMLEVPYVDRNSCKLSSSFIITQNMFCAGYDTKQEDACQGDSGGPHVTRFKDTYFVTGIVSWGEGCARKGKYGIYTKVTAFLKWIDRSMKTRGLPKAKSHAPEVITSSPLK
T1 sequence (P00742 41-179 partner limits assumed): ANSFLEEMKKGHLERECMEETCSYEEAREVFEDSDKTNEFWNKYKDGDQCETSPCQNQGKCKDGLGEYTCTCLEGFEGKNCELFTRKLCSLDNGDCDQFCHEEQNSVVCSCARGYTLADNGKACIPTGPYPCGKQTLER

In turn, `O=C(Nc1ccc(Cl)cc1C(=O)Nc1ccc(-n2ccccc2=O)cc1)c1ccc(Br)s1` [6a-a, 5-bromo-N-(4-chloro-2-((4-(2-oxopyridin-1(2H)-yl)ph-enyl)carbamoyl)phenyl)thiophene-2-carboxamide] had a melting point of more than 250 °C. At human FXa, this compound yielded an IC50 of 121 nM.

`Cc1cccc(C(=O)Nc2ccc(-n3ccccc3=O)cc2)c1NC(=O)c1ccc(Br)s1` [6a-c, 5-bromo-N-(2-methyl-6-((4-(2-oxopyridin-1(2H)-yl)ph-enyl)carbamoyl)phenyl)thiophene-2-carboxamide] yielded a melting point of more than 250 °C. Besides, at human FXa, the “FXa inhibitory activity (in words)” value is “poor IC50 values at a micromole level” and the 50% inhibitory concentration (IC50) was more than 1000 nM.

In turn, `O=C(Nc1ccccc1C(=O)Nc1ccc(N2CCOCC2=O)cc1)c1ccc(Br)s1` [6a-d, 5-bromo-N-(2-((4-(3-oxomorpholino)phenyl)carbamo-yl)phenyl)thiophene-2-carboxamide] yielded a melting point of more than 250 °C. The compound also returned an IC50 at human FXa of 113 nM.

`Cc1ccc(NC(=O)c2ccc(Br)s2)c(C(=O)Nc2ccc(N3CCOCC3=O)cc2)c1` [6a-f, 5-bromo-N-(4-methyl-2-((4-(3-oxomorpholino)phenyl)carbamoyl)phenyl)thiophene-2-carboxamide] returned a melting point of more than 250 °C. The compound further had an IC50 against human FXa of 54.8 nM.

`Cc1cccc(C(=O)Nc2ccc(N3CCOCC3=O)cc2)c1NC(=O)c1ccc(Br)s1` [6a-g, 5-bromo-N-(2-methyl-6-((4-(3-oxomorpholino)phenyl)carbamoyl)phenyl)thiophene-2-carboxamide]: the melting point was more than 250 °C. For the same compound, at human FXa, the “FXa inhibitory activity (in words)” value is “poor IC50 values at a micromole level” and the IC50 is more than 1000 nM.

`Cc1ccc(C(=O)Nc2ccccc2C(=O)Nc2ccc(-n3ccccc3=O)cc2)s1` [6b, 5-methyl-N-(2-((4-(2-oxopyridin-1(2H)-yl)phenyl)carb-amoyl)phenyl)thiophene-2-carboxamide] gave a melting point of more than 250 °C. This compound yielded a 50% inhibitory concentration (IC50) on human FXa of more than 1000 nM.

Consider `O=C(Nc1ccccc1C(=O)Nc1ccc(-n2ccccc2=O)cc1)c1ccc(Cl)o1` [6c, 5-chloro-N-(2-((4-(2-oxopyridin-1(2H)-yl)phenyl)carb-amoyl)phenyl)furan-2-carboxamide], for which the melting point is more than 250 °C. On human FXa, the concentration for half-maximal inhibition (IC50) was more than 1000 nM.

`O=C(Nc1ccccc1C(=O)Nc1ccc(-n2ccccc2=O)cc1)c1ccc(Br)o1` [6d, 5-bromo-N-(2-((4-(2-oxopyridin-1(2H)-yl)phenyl)carb-amoyl)phenyl)furan-2-carboxamide] gave a melting point of more than 250 °C. At human FXa, this compound showed an IC50 of more than 1000 nM.

In turn, `O=C(Nc1ccccc1C(=O)Nc1ccc(-n2ccccc2=O)cc1)c1ccc([N+](=O)[O-])cc1` [6e, 2-(4-nitrobenzamido)-N-(4-(2-oxopyridin-1 (2H)-yl)ph-enyl)benzamide] displayed a melting point of more than 250 °C.

As to `N#Cc1ccc(C(=O)Nc2ccccc2C(=O)Nc2ccc(-n3ccccc3=O)cc2)cc1` [6f, 2-(4-cyanobenzamido)-N-(4-(2-oxopyridin-1(2H)-yl)phenyl)benzamide], the melting point was more than 250 °C. Besides, on human FXa, the IC50 is more than 1000 nM.

In turn, `COc1ccc(C(=O)Nc2ccccc2C(=O)Nc2ccc(-n3ccccc3=O)cc2)cc1[N+](=O)[O-]` [6g, 4-methoxy-3-nitro-N-(2-((4-(2-oxopyridin-1(2H)-yl)ph-enyl)carbamoyl)phenyl)benzamide] displayed a melting point of more than 250 °C. Moreover, at human FXa, the IC50 was more than 1000 nM.

Take `O=C(Nc1ccccc1C(=O)Nc1ccc(-n2ccccc2=O)cc1)c1ccc(Cl)nc1` [6h, 6-chloro-N-(2-((4-(2-oxopyridin-1(2H)-yl)phenyl)carb-amoyl)phenyl)nicotinamide]: the melting point was more than 250 °C. Moreover, at human FXa, half-maximal inhibition (IC50) required 278 nM.

For `O=C(Nc1ccc(Cl)cc1C(=O)Nc1ccc(-n2ccccc2=O)cc1)c1ccc(Cl)nc1` [6h-a, 6-chloro-N-(4-chloro-2-((4-(2-oxopyridin-1(2H)-yl)ph-enyl)carbamoyl)phenyl)nicotinamide], the melting point was more than 250 °C. Also, half-maximal inhibition against human FXa (IC50) required 427 nM.

Compound `Cc1ccc(NC(=O)c2ccc(Cl)nc2)c(C(=O)Nc2ccc(-n3ccccc3=O)cc2)c1` [6h-b, 6-chloro-N-(4-methyl-2-((4-(2-oxopyridin-1(2H)-yl)ph-enyl)carbamoyl)phenyl)nicotinamide] came in with a melting point of more than 250 °C. In addition, the 50% inhibitory concentration (IC50) at human FXa turned out to be 212 nM.

On to `Cc1cccc(C(=O)Nc2ccc(-n3ccccc3=O)cc2)c1NC(=O)c1ccc(Cl)nc1` [6h-c, 6-chloro-N-(2-methyl-6-((4-(2-oxopyridin-1(2H)-yl)ph-enyl)carbamoyl)phenyl)nicotinamide], for which the melting point is more than 250 °C. Moreover, on human FXa, the concentration for half-maximal inhibition (IC50) is more than 1000 nM.

Consider `O=C(Nc1ccccc1C(=O)Nc1ccc(N2CCOCC2=O)cc1)c1ccc(Cl)nc1` [6h-d, 6-chloro-N-(2-((4-(3-oxomorpholino)phenyl)carbamo-yl)phenyl)nicotinamide], for which the melting point is more than 250 °C. Besides, the half-maximal inhibitory concentration (IC50) against human FXa was more than 1000 nM.

Consider `O=C(Nc1ccc(Cl)cc1C(=O)Nc1ccc(N2CCOCC2=O)cc1)c1ccc(Cl)nc1` [6h-e, 6-chloro-N-(4-chloro-2-((4-(3-oxomorpholino)phenyl)carbamoyl)phenyl)nicotinamide], for which the melting point is more than 250 °C. For the same compound, the IC50 on human FXa was found to be 781 nM.

Turning to `Cc1ccc(NC(=O)c2ccc(Cl)nc2)c(C(=O)Nc2ccc(N3CCOCC3=O)cc2)c1` [6h-f, 6-chloro-N-(4-methyl-2-((4-(3-oxomorpholino)phenyl)carbamoyl)phenyl)nicotinamide], the melting point was more than 250 °C. Moreover, the IC50 at human FXa is 453 nM.

The compound `Cc1cccc(C(=O)Nc2ccc(N3CCOCC3=O)cc2)c1NC(=O)c1ccc(Cl)nc1` [6h-g, 6-chloro-N-(2-methyl-6-((4-(3-oxomorpholino)phenyl)carbamoyl)phenyl)nicotinamide] showed a melting point of more than 250 °C. In addition, on human FXa, the IC50 was more than 1000 nM.

Take `O=C(Nc1ccccc1C(=O)Nc1ccc(-n2ccccc2=O)cc1)c1ccc(F)c(F)c1` [6i, 3,4-difluoro-N-(2-((4-(2-oxopyridin-1(2H)-yl)phenyl)carbamoyl)phenyl)benzamide]: the melting point is more than 250 °C. The 50% inhibitory concentration (IC50) at human FXa is more than 1000 nM.

Compound `O=C(Nc1ccccc1C(=O)Nc1ccc(-n2ccccc2=O)cc1)c1cc(F)c(F)c(F)c1` [6j, 3,4,5-trifluoro-N-(2-((4-(2-oxopyridin-1(2H)-yl)phenyl)arbamoyl)phenyl)benzamide] gave a melting point of more than 250 °C. The same compound yielded a 50% inhibitory concentration (IC50) against human FXa of more than 1000 nM.

`Cc1cccc(C(=O)Nc2ccc(-n3ccccc3=O)cc2)c1NC(=O)c1ccc(Cl)cc1Cl` [6k-c, 2-(2,4-dichlorobenzamido)-3-methyl-N-(4-(2-oxopyrid-in-1(2H)-yl)phenyl)benzamide]: the melting point was more than 250 °C. Further, on human FXa, the “FXa inhibitory activity (in words)” value is on record as “poor IC50 values at a micromole level” and the IC50 was more than 1000 nM.

Take `O=C(Nc1ccccc1C(=O)Nc1ccc(N2CCOCC2=O)cc1)c1ccc(Cl)cc1Cl` [6k-d, 2,4-dichloro-N-(2-((4-(3-oxomorpholino)phenyl)carba-moyl)phenyl)benzamide]: the melting point was more than 250 °C. At human FXa, this compound registered a concentration for half-maximal inhibition (IC50) of 128 nM.
